Data on one molecule can be found in US20100123097A1, “Method for Making Carbonates and Esters” (SABIC […] IP BV, priority 2008, published 2010).

The conditions of this data set: after >20 h storage time in the solvents of the table. How it is done:
Suitable reaction temperatures will typically be high enough to keep the solution or melt in the liquid form and not high enough to cause loss of the species 1, 2, 3, or 5 in FIGS. 1 and 2. The reaction temperature is less than 180° C., 160° C., 140° C. […] Higher reaction temperatures may be appropriate when more sterically hindered alcohols are used as reactants if longer reaction times are not acceptable.

`COC(=O)c1ccccc1OC(=O)Oc1ccccc1C(=O)OC` [BMSC, bismethyl salicyl carbonate]: the “Stability in these solvents (MS formation)” value is on record as “no detectable MS formation”.
